The record followed here is US20050009924A1 (priority 2003, published 2005).

Molecules are shown by their SMILES. Where two headings read alike, the source gives them in different places. Where only a bound is given, the exact number is not on record here.

The test system of data set [1] is human hepatoma G2 cells. The data set can be described thus: Cytotoxicity assay (XTT colorimetric), Hep G2. It is filed as cell-based. To be noted: 48 h of drug exposure. (In general: Tetrazolium dyes change colour on reduction, which living cells bring about.)
Data set [2] has as its system rat glioma C6 cells. Put plainly: Cytotoxicity assay (XTT colorimetric), C6 cells. To be noted: 48 h of drug exposure. Format: cell-based.
In data set [3] the test system is hepatitis B virus transfected hepatoma cell lines, HepG 2.2.15 cells. The data set can be described thus: Cytotoxicity assay, 2.2.15 cells. It is filed as cell-based, human. To be noted: 48 h of drug exposure.
The test system of data set [4] is transcriptional activity of hTERT. Put plainly: SEAP reporter assay of hTERT expression, PhTERT-SEAP (hTERT-BJ1). Format: cell-based, human. To be noted: hTERT-BJ1. The essentials: (§1)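 Read-out: rate of absorbance rise at 405 nm from p-nitrophenyl phosphate (12 mM final) hydrolysis by secreted alkaline phosphatase in heat-treated (65° C, 10 min) culture medium. Drugs at varying amounts were applied for 24 h after a 24 h pre-culture at 37° C.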
A general note: In a reporter assay the amount or activity of a reporter protein is the signal.

The test system is the same in data set [5]. Put plainly: SEAP reporter assay of hTERT expression, PhTERT-SEAP (H1299). Format: cell-based, human. To be noted: hTERT-H1299. The essentials: as §1
Data set [6] has as its system hTERT-BJ1 cells.
In data set [7] the test system is non-small-cell lung cancer cells H1299.

`O=C1c2cccc(NCCCO)c2C(=O)c2cccc(NCCCO)c21` [IVh, 1,5-Bis(propanolamino)anthraquinone]: the IC50 in data set [1], in data set [2] and in data set [3] was greater than 20 µM throughout. Moreover, the “Relative SEAP activity (%)” value in data set [4] (2.8 μM) is recorded as 41 ± 12.5%; in data set [4] (28 μM), 0 ± 22.1%; in data set [4] (282 μM) it was “(−3) ± 10.0^ %”; in data set [5] (2.8 μM) it was 88 ± 4.9%; in data set [5] (28 μM), 69 ± 5.4%; in data set [5] (282 μM) it was 33 ± 2.2%. Moreover, the “Relative MTT viability (%)” value in data set [6] (2.8 µM) was found to be 72 ± 7.4%; in data set [6] (28 µM), 39 ± 10.5%; in data set [6] (282 µM) it was 26 ± 15.9%; in data set [7] (2.8 µM), 107 ± 5.0%; in data set [7] (28 µM), 49 ± 3.5%; in data set [7] (282 µM) it was 40 ± 10.4%.
With `O=C1c2cccc(NCCCCO)c2C(=O)c2cccc(NCCCCO)c21` [IVk, 1,5-Bis(butanolamino-)-anthraquinone], the IC50 (commonly the concentration that inhibits the measured activity by half) in data set [1] is greater than 20 µM; in data set [2], greater than 20 µM; in data set [3], 10.3 ± 0.24 µM. For the same molecule, the “Relative SEAP activity (%)” value in data set [4] (2.6 μM) is given as 114 ± 20.5%; in data set [4] (26 μM), 113 ± 21.6%; in data set [4] (265 μM), 127 ± 19.9%; in data set [5] (2.6 μM), 89 ± 4.9%; in data set [5] (26 μM), 71 ± 9.8%; in data set [5] (265 μM) it was 27 ± 2.0%. Besides, the “Relative MTT viability (%)” value in data set [6] (2.6 µM) came out at 101 ± 10.5%; in data set [6] (26 µM), 101 ± 8.8%; in data set [6] (265 µM), 91 ± 11.8%; in data set [7] (2.6 µM) it was 114 ± 8.1%; in data set [7] (26 µM), 110 ± 7.1%; in data set [7] (265 µM), 16 ± 3.4%.
